From patent US4352819A (priority 1980, dated 1982)
Like-named read-outs stand apart in the source and are kept apart here.

Columns and labels:
[1] = system: ventricular fibrillation induced by chloroform; assay: Chloroform test (antiarrhythmic); assay type: in vivo; conditions: iv, read-out: ED50, Chloroform, mouse (dose which protects 50% of the mice against ventricular fibrillation induced by chloroform)
Description: Five minutes after i.v. injection of the compound under study the mice are placed into a 300 ml beaker containing cotton wool soaked with 20 ml of chloroform. The animals are watched carefully and taken out of the beaker as soon as the second respiratory arrest occured. The heart is then quickly exposed to visual inspection of ventricular rhythm (see Lawson, Loc.cit.).

[2] = system: aconitine-induced arrhythmias; assay: Aconitine test (antiarrhythmic); assay type: in vivo, rat; conditions: for ED50: Rattus norvegicus, read-out: ED50, Aconitine, rat
Source text: (§1) These compounds were first selected owing to their activity in different experimental arrhythmia models which are used as screening techniques. So the chloroform, aconitine and calcium chloride tests have been used for testing the compounds of the invention as described by J. W. Lawson, J.Pharmacol.exp.Ther. 160, 22-81 (1968) "Antiarrhythmic activity of some isoquinoline derivatives determined by a rapid screening procedure in the mouse".
It seems that investigators favour the rat so as to study the protective effect of a compound on arrhythmia induced by aconitine (see: J. L. Junien et al., Arzneim.Forsch. 24, 1743-1747 (1974); L. Szekeres et al., Experimental cardiac arrhythmias and antiarrhythmic drugs, Publishing House of the Hungarian Academy of Sciences (Akademia Kiado), Budapest (1971); M. R. Malinow et al., Arch.int.Pharmacodyn. 102, 55-64 (1955); C. Bianchi et al., Arzneim. Forsch. 18, 845-850 (1968); B. B. Vargaftig et al., J. Pharm. Pharmacol. 27, 697-699 (1975); and M. Fekete et al., Med Exp. 10, 93-102 (1964)).
Test compounds are administered to the urethane-anaesthetized rat prior to the injection of aconitine. Various antiarrhythmic drugs are capable of delaying the onset of aconitine-induced arrhythmias and this model of arrhythmia seems to be suitable for assaying the antiarrhythmic acitivity.

[3] = system: calcium chloride-induced arrhythmias; assay: Calcium chloride test (antiarrhythmic); assay type: in vivo, rat; conditions: for ED50: iv, read-out: ED50, Calcium chloride, rat
Source text: as §1
Cardiac arrhythmia frequently occurs when the levels of serum ions are abnormal, particularly when the calcium level is four times higher than the normal concentration. This is the reason why intravenous administraction of high doses of calcium chloride can elicit the development of dysrhythmias in animals.
In the anaesthetized rat the rapid intravenous injection of calcium chloride causes lethal ventricular fibrillation or ventricular extrasystoles. The evaluation of the activity of the test compound aministered prior to the calcium chloride injection is based on the onset of arrhythmia (M. R. Malinow et al., Arch.int. Pharmacodyn. 102, 55-64 (1955), "The pharmacology of experimental ventricular arrhythmias in the rat I. Antihistamic drugs") or return to sinus rhythm after occasional trouble of rhythm (M. Fekete et al., Med. Exp. 10, 93-102 (1964), "On the antiarrhythmic effect of some thymoleptics: amitriptyline, imipramine, trimepropimine and desmethylimipramine").

| Structure (SMILES) | ED50 ([1]; Mus musculus) [mg/kg] | ED50 [2] [mg/kg] | ED50 ([3]; Rattus norvegicus) [mg/kg] | ED50 ([1]; mouse, i.v., 5 minutes before chloroform) [mg/kg] | ED50 ([3]; anaesthetized rat, compound given prior to i.v. calcium chloride) [mg/kg] | ranking in the aconitine test ([2]; rat, compared by ED50) | protection against arrhythmias induced by calcium chloride ([3]; rat) |
| --- | --- | --- | --- | --- | --- | --- | --- |
| CCCCNCC(O)COc1ccsc1C(=O)CCc1ccccc1.OCl (centres unmarked) [LG 80-6-00, 1-[3-(2-hydroxy-3-n-butylaminopropoxy)-2-thienyl]-3-phenyl-1-propanone-chlorohydrate] | 4.16 | 4.23 | 5.04 | – | – | – | – |
| CCCNCC(O)COc1cc(C)sc1C(=O)CCc1ccccc1.OCl (centres unmarked) [LG 80-6-02, 1-[5-methyl-3-(2-hydroxy-3-n-propylaminopropoxy)-2-thienyl]-3-phenyl-1-propanone-chlorohydrate] | 17.6 | 22.8 | 2.87 | – | – | – | – |
| CCCNCC(O)COc1ccccc1C(=O)CCc1ccccc1 (centres unmarked) [Propafenon, Propafenone, reference compound] | – | 2.1 | – | 3.45 | 4.49 | – | – |
| CCCNCC(O)COc1c(C)csc1C(=O)CCc1ccccc1.OCl (centres unmarked) [LG 80-6-01, 1-[4-methyl-3-(2-hydroxy-3-n-propylaminopropoxy)-2-thienyl]-3-phenyl-1-propanone-chlorohydrate] | 3.57 | 1.49 | 2.59 | – | – | best compound in this method | best protection against arrhythmias induced by calcium chloride |
